The values below are quoted from earlier work in patent US12133854B2 (SLAYBACK PHARMA LLC, priority 2021, dated 2024).

The structures appear in SMILES notation. ≈ marks a conversion by molar mass, not a printed value. Entries after “also recorded” stand apart in the source; their conditions may differ. Read-outs that look alike come from different tables or passages of the source.

Turning to `CC#C[C@]1(O)CC[C@H]2[C@@H]3CCC4=CC(=O)CCC4=C3[C@@H](c3ccc(N(C)C)cc3)C[C@@]21C` [Mifepristone, 11β-(4-dimethylaminophenyl)-17β-hydroxy-17α-(1-propynyl)-estra-4,9-dien-3-one], the “Solubility in methanol, chloroform and acetone” value was “very soluble”; the Solubility in water entry is “practically insoluble; also recorded: low aqueous solubility”. For the same molecule, for the setting “above pH 2.5”, the Solubility result is recorded as “less than 1 mg/mL”. The Solubility (in acid, pH 1.5) is on record as about 25 mg/mL (≈ 58.2 mM).
